Assay results taken from US12071596B2, “Metal working fluids biocide” (Dow Global Technologies LLC, priority 2021, dated 2024).

Tested on: mixed microbial inoculum
Test: Microbial growth inhibition test (challenge test) in diluted metalworking fluid
Assay type: cell-based
Settings: 0.91 wt. % amine in diluted metalworking fluid, 30° C.; for Challenge Test Results 2nd dose Day 14: 2nd dosing 0.5 ml mixed inoculum, read at Day 14; for Challenge Test Results 3rd dose Day 21: 3rd dosing 1 ml mixed inoculum, read at Day 21; for Challenge Test Results 4th dose Day 28: 4th dosing 1 ml mixed inoculum, read at Day 28; for Challenge Test Results 5th dose Day 35: 5th dosing 3 ml mixed inoculum, read at Day 35; for Challenge Test Results 1st dose Day 7: 50 g sample, 1st dosing 0.5 ml mixed inoculum, read at Day 7
Experimental: Test 1—Microbial Growth Inhibition Test
To test the novel disclosed microbial growth control agent the diluted metal working fluid shown in Table 1 is mixed with the various ether amines listed in Table 2. Firstly, using 250 mL glass beaker to prepare 100 g the basic diluted metalworking fluid with the recipe in Table 1 except amine ingredient, stirring for getting clear solution. Repeating the first step to get 8 basic diluted metalworking fluid solutions. Secondly, adding every kind of amine or amine combination from Table 2 as comparative example 1-2 and example 1-6. Thirdly, 50 g the comparative example 1-2 and example 1-6 into 8 petri dishes with a diameter of 10 cm and dosed with 0.5 ml of mixed microbial inoculum. Measuring the microbial growth in the petri dishes after 7 days and repeating to dose the mixed microbial inoculum and measuring them in 5 times. For the first and second dosing, 0.5 ml mixed inoculum is used; in third and fourth dosing, 1 ml mixed inoculum is used; and in the fifth dosing, 3 ml mixed inoculum is used The MWF microbial inoculum was prepared by adding 0.1 mL of each bacterial overnight broth culture and 1.0 mL of each yeast broth culture to the 10 mL of mold suspension and blending. The microbial strains used in this experiment are listed in Table 3 below (8 bacteria, 2 molds and 2 fungi). These strains were cultivated separately in nutrient broth and then blend them together. The mixed strains were then injected into each tested MWF and amine sample and mixed well.
50 grams of each of the MWF treated with amine samples (e.g., Examples 1-5 and Comparative Examples 1-2) were dosed with 0.5 ml of mixed microbial inoculum on Day 0 of this experiment. This inoculation introduces around […] colony forming units per milliliter of sample, (CFU/ml) of microorganisms.
The mixed inoculated samples where then incubated at 30° C. to determine the biocidal effect of the tested amines on the microbes. After seven days, the number of microorganisms surviving in the petri dish was observed and if the colony growth was less than 10, it was considered as PASS. After measuring the number of surviving microorganisms, another round of dosing with the mixed microbial inoculum was complete. The step of observation and subsequent dosing was done 5 times to challenge the microbial growth inhibition capabilities of the tested examples. For the first and second dosing, 0.5 ml mixed inoculum was used; in third and fourth dosing, 1 ml mixed inoculum was used; and in the fifth dosing, 3 ml mixed inoculum is used.

Compound | Challenge Test Results 2nd dose Day 14 | Challenge Test Results 3rd dose Day 21 | Challenge Test Results 4th dose Day 28 | Challenge Test Results 5th dose Day 35 | Challenge Test Results 1st dose Day 7
CCCCOCCN [Example 3, 2-butoxy-ethanamine] | Pass (if the colony growth was less than 10, it was considered as PASS) | Pass (if the colony growth was less than 10, it was considered as PASS) | Pass (if the colony growth was less than 10, it was considered as PASS) | Pass (if the colony growth was less than 10, it was considered as PASS) | Pass (if the colony growth was less than 10, it was considered as PASS)
CCCOCC(C)OCC(C)OCC(C)N (centres unmarked) [Example 4, 1-[1-methyl-2-(1-methyl-2-propoxyethoxy)ethoxy]-2-propanamine] | Pass (if the colony growth was less than 10, it was considered as PASS) | Pass (if the colony growth was less than 10, it was considered as PASS) | Pass (if the colony growth was less than 10, it was considered as PASS) | Pass (if the colony growth was less than 10, it was considered as PASS) | Pass (if the colony growth was less than 10, it was considered as PASS)
COCC(C)N (centres unmarked) [Example 1, 1-methoxy-2-propanamine] | Pass (if the colony growth was less than 10, it was considered as PASS) | Pass (if the colony growth was less than 10, it was considered as PASS) | Pass (if the colony growth was less than 10, it was considered as PASS) | Pass (if the colony growth was less than 10, it was considered as PASS) | Pass (if the colony growth was less than 10, it was considered as PASS)
CCCCOCC(C)OCC(C)N (centres unmarked) [Example 5, 2-propanamine, 1-(2-butoxy-1-methylethoxy)-] | Pass (if the colony growth was less than 10, it was considered as PASS) | Pass (if the colony growth was less than 10, it was considered as PASS) | Pass (if the colony growth was less than 10, it was considered as PASS) | Pass (if the colony growth was less than 10, it was considered as PASS) | Pass (if the colony growth was less than 10, it was considered as PASS)
CCCOCC(C)OCC(C)N (centres unmarked) [Example 6, 1-(1-methyl-2-propoxyethoxy)-2-propanamine] | Pass (if the colony growth was less than 10, it was considered as PASS) | Pass (if the colony growth was less than 10, it was considered as PASS) | Pass (if the colony growth was less than 10, it was considered as PASS) | Pass (if the colony growth was less than 10, it was considered as PASS) | Pass (if the colony growth was less than 10, it was considered as PASS)
CC(C)(N)CO [compound 2, 2-amino-2-methyl-1-propanol, reference compound] | Pass (if the colony growth was less than 10, it was considered as PASS) | Pass (if the colony growth was less than 10, it was considered as PASS) | Pass (if the colony growth was less than 10, it was considered as PASS) | Pass (if the colony growth was less than 10, it was considered as PASS) | Pass (if the colony growth was less than 10, it was considered as PASS)
CCCCOCC(C)N (centres unmarked) [Example 2, 1-butoxy-2-propanamine] | Pass (if the colony growth was less than 10, it was considered as PASS) | Pass (if the colony growth was less than 10, it was considered as PASS) | Pass (if the colony growth was less than 10, it was considered as PASS) | Pass (if the colony growth was less than 10, it was considered as PASS) | Pass (if the colony growth was less than 10, it was considered as PASS)
